# Source: patent US8716355B2, “Hydroxylated tolans and related compounds in the treatment of a cancer” (Kent State University, priority 2007, dated 2014)
# Key:
# caspase-3 = test: Caspase-3 activity in DU145 cells (fluorimetric immunosorbent enzyme assay); assay type: cell-based, human
# Experimental: FIG. 5. Measurement of Caspase-3 Activity in Resveratrol-treated DU145 cells. […] Activity of proteolytic cleavage was determined fluorometrically using Ac-DEVD-AFC as a substrate for activated caspase-3 immobilized on the well surface. The results represent mean±SD of triplicate determinations. The positive control (“Post. Ctl”) was camptothecin-induced apoptosis in U937 cells.
# FIG. 6. Measurement of Caspase-3 Activity of KST-201-treated DU145 cells as a function of dose. […] Activity of proteolytic cleavage (caspase-3 activity) and other details are as above.
# FIG. 7. Time course of Caspase-3 Activation by KST201 in DU145 cells as a measure of apoptosis. DU145 cells were treated at CD50 of KST201 for 12, 24 or 48 hours. Details are as described for FIG. 5.
# The proteolytic activity of caspase-3 in DU145 cells, was measured using a fluorimetric immunosorbent enzyme assay kit. […] After washing and centrifuging, the cell pellet was collected and incubated with dithiothreitol (DTT) lysis buffer on ice. The cell lysate was then transferred to a centrifuge tube for measurement of proteolytic cleavage by caspase-3 utilizing a fluorimetric immunosorbent enzyme assay kit (Roche, Indianapolis, Ind.). Antibody against caspase-3 was diluted in the coating buffer and immobilized to the surface of 96-well plates followed by washing steps. Compound-treated cell lysates and the untreated controls were added to the plate and incubated for one hour at 37° C. Any caspase-3 in the samples was captured by the immobilized antibody. The caspase-3 enzyme cleaved its fluorogenic substrate Ac-DEVD-AFC when it was added to the wells, resulting in. free fluorescent AFC that was measured in a Fluoroskan® Ascent FL plate reader (Thermo, Waltham, Mass.) with a filter set at an excitation/emission of 390 nm/[…]. The fluorescence intensity was proportional to the concentration of AFC determined by a standard curve, generated by different dilutions of AFC standard included in the kit. The amount of activated caspase-3 in the sample was derived from this curve.
# bladder cancer = test: Bladder cancer patients (Example VIII B); assay type: in vivo, human; settings: intravenous 10 μg to 5 mg/kg over three months
# Experimental: A group of 20 men and 20 women aged 50-75 with bladder cancer are treated by intravenous injection of between 10 μg and 5 mg/kg of KST-201, KST-213, KST-301 or KST-401. Each compound is given to a group of 5 men and 5 women) over a period of three months. Clinical, radiographic and histopathological tests show significant remission in 35% of patients, accompanied by signs of cell death in 45%. There are no significant differences between the results with the four compounds.
# DU145 cells = test: Flow cytometric cell cycle analysis of DU145 cells; assay type: cell-based, human
# Experimental: Initially, the mechanism(s) responsible for the antitumor activity of KST-201 were tested in the DU145 cell line. […] The cell cycle distribution of sham-treated (FIG. 4, upper left) DU145 cells or DU145 cells treated with KST-201 at 14 μM (FIG. 4, upper right), 28 μM (FIG. 4, lower left) or 56 μM (FIG. 4, lower right) were determined by flow cytometry.
# ovarian cancer = test: Ovarian cancer patients (Example VIII D); assay type: in vivo, human; settings: daily gelatin capsule 200 mg
# Experimental: A study is carried out in a group of 40 women with ovarian cancer of various grades to determine the effect of treatment with compounds of KST-201, KST-213, KST-301 and KST-401. The administration protocol involves daily administration of a gelatin capsule containing 200 mg of active compound.
# HSV-1 = test system: HSV-1
# Source text: FIG. 2. […] A 10% w/v solution of KST-301 in DMSO was applied topically to the epidermal infection site 3×/day for 5 days. Controls animals received the same volume of the DMSO vehicle at the same intervals. Lesions were scored as 0=no visible lesions, +1=papules around the infection site, +2=papules are ulcerated around the infection site with eschar formation, +3=ulcerated zosteriform spread along peripheral nerves to the flank of the animal, +4=ulcerated lesions open on the flank, and +5=death of the animal.
# The lesions were scored as in the description for FIG. 2.
SMILES,"Caspase-3 activation (caspase-3; 0.5×CD50, 24 hr)",Caspase-3 activity (caspase-3; 48 hours or 2×CD50),"Caspase-3 activation (caspase-3; CD50 concentration, 24 hr)",Patients with signs of cell death (bladder cancer),Patients with significant remission (bladder cancer; no differences between compounds),"Phase of Cell Cycle S (DU145 cells; 14 μM, untreated 40)","Phase of Cell Cycle G0/G1 (DU145 cells; 14 μM, untreated 46)",Phase of Cell Cycle G0/G1 (DU145 cells; 28 μM),Phase of Cell Cycle G2/M (DU145 cells; 28 μM),Phase of Cell Cycle S (DU145 cells; 28 μM),Phase of Cell Cycle G0/G1 (DU145 cells; 56 μM),Phase of Cell Cycle G2/M (DU145 cells; 56 μM),Phase of Cell Cycle S (DU145 cells; 56 μM),"Effect on cell cycle (in words) (DU145 cells; 14, 28 and 56 μM)","Rate of production of ovarian cancer markers (Muc-1, Sp17) (ovarian cancer)",Tumor growth during study period (ovarian cancer),"Severity of HSV-1 lesions (HSV-1; 10% w/v solution in DMSO, topical 3×/day for 5 days, hairless mice)",Treated animals in which lesion formation was prevented (HSV-1; topical solution in DMSO),"Treated animals showing evidence of HSV infection (HSV-1; topical solution in DMSO, controls 83-100%)","Maximum (average) lesion score (HSV-1; topical solution in DMSO, scale 0 to +5, controls 3.8-4 by days 8 and 9)"
"Oc1ccc(C#Cc2ccc(O)cc2)cc1 [KST-201, 4,4′-dihydroxytolan]",effectively activated caspase-3,loss of caspase-3 activity,activated significantly,45%,35%,28,72,77,3,20,78,4,18,G0/G1-S cell cycle arrest,significant decrease,Tumors regress or show no further growth,–,–,–,–
"Oc1ccc(/C=C/c2cc(O)cc(O)c2)cc1 [Resveratrol, 3,5,4′-trihydroxy-trans-stilbene, reference compound]",–,–,–,–,–,–,–,–,–,–,–,–,–,–,–,–,significantly reduced the severity of the lesions,57-67%,43%,0.8-1.2
